Experimental data as given in patent US11414398B2, “Selective organic cation transporters inhibitors for the treatment of depressive disorders” (priority 2017, dated 2022).

Tests used:
OCT3 = biological target: T1, OCT3 (Homo sapiens, UniProt O75751); conditions: for OCT3; cited from earlier work
T1 sequence (O75751 1-556): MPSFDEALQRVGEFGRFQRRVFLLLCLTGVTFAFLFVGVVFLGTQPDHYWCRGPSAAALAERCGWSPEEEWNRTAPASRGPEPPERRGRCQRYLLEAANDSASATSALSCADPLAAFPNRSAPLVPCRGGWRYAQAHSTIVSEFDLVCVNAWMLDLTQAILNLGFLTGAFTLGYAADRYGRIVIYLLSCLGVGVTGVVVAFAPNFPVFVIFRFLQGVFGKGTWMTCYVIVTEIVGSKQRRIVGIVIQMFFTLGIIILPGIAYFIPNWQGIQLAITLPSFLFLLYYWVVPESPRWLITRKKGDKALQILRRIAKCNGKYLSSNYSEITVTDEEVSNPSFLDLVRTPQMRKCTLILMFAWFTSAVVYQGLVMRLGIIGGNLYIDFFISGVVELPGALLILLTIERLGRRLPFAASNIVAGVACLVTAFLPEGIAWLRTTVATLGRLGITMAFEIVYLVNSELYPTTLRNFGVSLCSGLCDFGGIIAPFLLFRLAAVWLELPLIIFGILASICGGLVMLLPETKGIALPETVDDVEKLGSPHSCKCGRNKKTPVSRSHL

α1-adrenoreceptors = conditions: cited from earlier work
α2-adrenoreceptors = conditions: cited from earlier work
[1] = after injection in rabbits; cited from earlier work
[2] = tested on: corticosterone-induced depression model; assay: Coat state, corticosterone-induced depression; assay type: in vivo, mice; conditions: both time points; i.p. daily: I-1 0.1 mg/kg/day, fluoxetine 15 mg/kg/day or both
Procedure: Corticosterone-induced depression. […] The experimental scheme is represented on FIG. 1A. Coat state. The coat state of each animal was assessed weekly as a measure of motivation toward self-care. It was evaluated as the sum of the score of different parts of the body, ranging between 0 for a well-groomed coat and 1 for an unkempt coat for head, neck, dorsal/ventral coat, tail and forepaws/hindpaws (FIG. 1B).

[3] = tested on: corticosterone-induced depression model; assay: Sucrose preference test, corticosterone-induced depression; assay type: in vivo, mice; conditions: i.p. daily: I-1 0.1 mg/kg/day, fluoxetine 15 mg/kg/day or both
Procedure: Corticosterone-induced depression. […] The experimental scheme is represented on FIG. 1A. Sucrose preference test. Singled-house mice were first habituated for 48 h to drink water from two bottles.

[4] = tested on: corticosterone-induced depression model; assay: Elevated O-maze test, corticosterone-induced depression; assay type: in vivo, mice; conditions: after 21 days; i.p. daily: I-1 0.1 mg/kg/day, fluoxetine 15 mg/kg/day or both
Procedure: Corticosterone-induced depression. […] The experimental scheme is represented on FIG. 1A. Elevated O-maze test. The elevated O-maze consisted of an annular runway positioned 40 cm above the floor and divided into two opposing 90° closed sectors and two 90° open sectors. The mice were individually placed in the closed sector and their behavior recorded over a 5-min period. The time spent in each sector and the number of sector entries (a sector entry was defined as all four of the paws being placed in a sector) were determined by video tracking (Viewpoint, Lyon, France) (FIGS. 1D and 1E).

[5] = tested on: corticosterone-induced depression model; assay: Social interaction test, corticosterone-induced depression; assay type: in vivo, mice; conditions: compared to corticosterone
Procedure: (§1) Corticosterone-induced depression. […] The experimental scheme is represented on FIG. 1A. Social interaction test. The social interaction test was performed in a white open-field (42×42 cm) containing an empty wire mesh cage (10×6.5 cm) located at an extremity of the field in a low luminosity environment (25 lux). Each test mouse was allowed to explore the openfield for two consecutive sessions of 2.5 min. During the second session, an unfamiliar mouse was introduced into the cage. Between the two sessions, the test mouse was placed back into its home cage for approximately one minute. The time spent by the test mouse in the interaction zone, defined as an 8-cm-wide region surrounding the mesh cage, was measured in both sessions by video tracking (Viewpoint, Lyon, France) (FIGS. 1G and 1I).

[6] = tested on: corticosterone-induced depression model; assay: Open-field test, corticosterone-induced depression; assay type: in vivo, mice; conditions: compared to corticosterone; I-1 0.1 mg/kg/day, fluoxetine 15 mg/kg/day or both, i.p.
Procedure: (§2) Corticosterone-induced depression. To induce a chronic depression-like state, individually housed mice were administered corticosterone ([…]; Sigma-Aldrich) dissolved in 0.45% (wt/vol) hydroxypropyl-b-cyclodextrin (Sigma-Aldrich) as in (Bacq et al., Mol. Psychiatry, 2012, 17, 926-939). […] The mice were tested successively for coat sate, sucrose consumption, elevated O-maze, object location test and social interaction, before antidepressant treatment, and after 10 days and 3 weeks of treatment. The experimental scheme is represented on FIG. 1A.
Open-field test. The open field consisted of a white Plexiglas field (100×100×30 cm) with the center brightly illuminated (500 lux). General locomotor activity in the center and periphery of the open field were scored for 9 min. The time and number of entries in the center zone (60×60 cm) were evaluated as an index of anxiety-related response (FIG. 2B).

[7] = Effect on weight, corticosterone-induced depression; assay type: in vivo, mice; conditions: weight measured daily; I-1 0.1 mg/kg/day, fluoxetine 15 mg/kg/day or both, i.p.
Procedure: Corticosterone-induced depression. […] The experimental scheme is represented on FIG. 1A. Effect on weight. The weight of tested mice was measured daily in the morning (FIG. 2D).

social defeat model = assay: Social defeat model, social interaction test; assay type: in vivo, mice; conditions: after 3 weeks of treatment; fluoxetine 17 mg/kg, compound (I-1) 0.1 mg/kg as printed
Procedure: as §1, with “Social defeat model. For social defeat, 8-week-old C57Bl/6J mice were submitted to social defeat stress for 10 consecutive days as described (Berton et al., Science, 2006, 311(5762), 864-8).” for “Corticosterone-induced depression.”, “1H.” for “1A.”

[8] = blood after 3 weeks of treatment, corticosterone model; means ± SEM (n = 6)
Procedure: as §2
Blood parameter evaluation. Blood was collected in lithium heparin after the 3 weeks of treatment. Hemograms were performed with a Siemens ADVIAZ 120 apparatus. For biochemistry, blood was centrifuged at 2000 g for 10 min at +4° C. and supernatant was analyzed with a COBAS 6000 (Roche) apparatus.

[9] = tested on: autophagy and proteasome pathways in the brain; assay: Toxicity: cell death pathways in the brain, Western blots; conditions: quantitative Western blot, prefrontal cortex and hippocampus, corticosterone model
Procedure: as §2
Cell death pathways in the brain—Western blots. […] Samples were homogenized by sonication in 2 vol of ice-cold phosphate-buffered saline containing 1% Triton X-100, protease inhibitors (Complete Protease Inhibitor Cocktail, Roche Diagnostics, Basel, Switzerland) and phosphatase inhibitors (Phosphatase Inhibitor Cocktail 3; Sigma-Aldrich). Protein concentrations were determined by Bradford's method. Proteins samples (15 μg) suspended in NuPage LDS sample buffer (Invitrogen, Carlsbad, Calif., USA) were separated by Bis-Tris sodium dodecyl sulfate polyacrylamide gel electrophoresis (10% gels) and transferred onto nitrocellulose membranes (Invitrogen). Transfer efficacy was controlled by Ponceau S staining. Unspecific binding sites were blocked in Tris-buffered saline containing 0.1% Tween-20 and 5% nonfat milk and membranes were immunoprobed with antibodies against β-actin ( 1/2500) and β-catenin ( 1/300) from Sigma-Aldrich or LC3B ( 1/5000) from Abcam. Membranes were incubated with infrared-labeled secondary antibodies (IRDye 700DX and IRDye 800CW; 1/5000; Rockland, Gilbertsvillle, Pa., USA). Immunoblotting was quantified with the Odyssey Infrared Imaging System and Application Software version 3.0 (LI-COR Biosciences, Lincoln, Nebr., USA).

CC(C)N1/C(=C\c2cc[n+](C(C)C)c3ccccc23)C=Cc2ccccc21 [Compound D24, disprocynium 24]
Ki (OCT3): 14 nM | inhibition of α1-adrenoreceptors (α1-adrenoreceptors): inhibits | inhibition of α2-adrenoreceptors (α2-adrenoreceptors): inhibits | hypotensive effects (blood pressure) [1]: decreasing blood pressure markedly

CNCCC(Oc1ccc(C(F)(F)F)cc1)c1ccccc1 (stereo not shown) [fluoxetine, reference compound]
coat state [2]: improved coat state at both time points | sucrose preference ([3]; 11 days of treatment): but not fluoxetine alone, significantly increased sucrose preference at 11 days | sucrose preference ([3]; 21 days of treatment): significantly increased sucrose preference at 21 days | latency to enter the open zone of the elevated O-maze [4]: decreased the latency to enter this zone | time in the open zone of the elevated O-maze [4]: increased the time in the open zone | interaction time in social interaction test ([5]; 11 days of treatment): significant effects on interaction time | interaction time in social interaction test ([5]; 21 days of treatment): significant effects on interaction time | locomotor activity at the periphery of the open field [6]: significant effect | effect on weight [7]: no significant effect | reversal of social aversion (time in interaction zone with target) (social defeat model): reversed only by fluoxetine | ALP [8]: 47.4 ± 6.2 U/L | ALT [8]: 75.1 ± 12.4 U/L | AST [8]: 584.2 ± 87.6 U/L | Creatinine [8]: 0.5 ± 0.04 mg/dL | Hematies [8]: 8.5 ± 0.3 T/L | Leucocytes [8]: 2.99 ± 0.08 g/L | Platelets [8]: 357 ± 57.2 | Total bilirubin [8]: 0.12 ± 0.01 mg/dL | Urea [8]: 64.2 ± 4.1 mg/dL | LC3II/LC3I ratios [9]: comparable LC3II/LC3I ratios | β-catenin levels [9]: comparable
